# According to patent US11077090B2, “Compounds and compositions and uses thereof” (Sunovion Pharmaceuticals Inc., priority 2016, dated 2021):
# System: Male C57Bl/6J mice
# Assay: Prepulse inhibition of startle (PPI)
# Assay type: in vivo
# Design: key: −: No change in PPI; +: Significant increase in PPI at one pre-pulse intensity (P < 0.05 vs vehicle); ++: Significant increase in PPI at two pre-pulse intensities (P < 0.05 vs vehicle); +++: Significant increase in PPI at three pre-pulse intensities (P < 0.05 vs vehicle)
# Details: 3 mg/kg PO
# From the text: The acoustic startle is an unconditioned reflex response to an external auditory stimulus. Prepulse inhibition of startle (PPI) refers to the reduction in the startle response caused by the presentation of a low-intensity auditory stimulus prior to the startle stimulus. The PPI paradigm is used for the study of schizophrenia and antipsychotic action due to the similarities between the results from human and rodent studies. PPI has been used as a tool for the assessment of deficiencies in sensory-motor gating observed in schizophrenia and to screen for potential antipsychotic drugs. Various psychotomimetic drugs, such as phencyclidine (PCP), can disrupt PPI. In mice, antipsychotic drugs such as haloperidol can increase PPI and clozapine can reverse the disruption of PPI induced by PCP.
# Male C57Bl/6J mice from Jackson Laboratories were placed in the PPI chambers (Med Associates) for a 5 min session of white noise (70 dB) habituation. After the habituation period, the test session was initiated. The session started with a habituation block of 6 presentations of the startle stimulus alone, followed by 10 PPI blocks, each of which consisted of 6 different types of trials. Trial types were: ‘null’ (no stimuli), ‘startle’ (120 dB), ‘startle plus prepulse’ (4, 8, and 12 dB over background noise, i.e., 74, 78, or 82 dB) and ‘prepulse’ (82 dB). Trial types were presented in a random order within each block. Each trial started with a 50 ms stimulus-free period during which baseline movements were recorded. This was followed by a subsequent 20 ms period during which the prepulse stimulus was presented and responses to the prepulse measured. After a further 100 ms period, the startle stimulus was presented for 40 ms and responses recorded for 100 ms from startle onset. Responses were sampled every ms. The inter-trial interval was variable with an average of 15 s (range from 10 to 20 s). In ‘startle’ trials, the basic auditory startle response was measured. The basic startle response was calculated as the mean startle response of all ‘startle’ trials (i.e., excluding the first habituation block). In ‘startle plus prepulse’ trials, the degree of inhibition of the normal startle was calculated and expressed as a percentage of the basic startle response.
# Mice were treated with vehicle or test compound orally by gavage, or haloperidol (1 mg/kg, i.p.), in 10 mL/kg injection volumes, 30 min prior to PPI test. The PPI enclosures were cleaned following each test. An increase in the percent PPI relative to the vehicle condition indicates an antipsychotic drug-like response.
row,Structure (SMILES),Effect on Pre-Pulse Inhibition (PPI)
1,"N[C@@H]1COCc2ccccc21 (single isomer, unassigned) [Example 111]",−

# Same assay, conditions: 10 mg/kg PO
row,Structure (SMILES),Effect on Pre-Pulse Inhibition (PPI)
1,"N[C@@H]1COCc2ccccc21 (single isomer, unassigned) [Example 111]",−
2,"N[C@H]1COCc2ccc(F)cc21 (single isomer, unassigned) [Example 114]",−
3,"N[C@@H]1COCc2ccc3ccccc3c21 (single isomer, unassigned) [Example 117]",−
4,"N[C@H]1COCc2ccc3ccccc3c21 (single isomer, unassigned) [Example 118]",−
5,Cc1ccc2c(c1)[C@H](N)COC2 [Example 123],−
6,Cc1ccc2c(c1)[C@@H](N)COC2 [Example 124],−

# Same assay, conditions: 30 mg/kg PO
row,Structure (SMILES),Effect on Pre-Pulse Inhibition (PPI)
1,"N[C@@H]1COCc2ccccc21 (single isomer, unassigned) [Example 111]",+++
2,"N[C@H]1COCc2ccc(F)cc21 (single isomer, unassigned) [Example 114]",−
3,"N[C@@H]1COCc2ccc3ccccc3c21 (single isomer, unassigned) [Example 117]",+++
4,"N[C@H]1COCc2ccc3ccccc3c21 (single isomer, unassigned) [Example 118]",−
5,Cc1ccc2c(c1)[C@H](N)COC2 [Example 123],−
6,Cc1ccc2c(c1)[C@@H](N)COC2 [Example 124],−

# System: compound-treated mice
# Assay: Neuropharmacological assay (SmartCube): behavioral activity signature and minimal effective dose
# Assay type: in vivo
# Details: MED = dose having 50% or more total activity
# In short: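 Video-recorded behavior is compared algorithmically against a reference-compound database, yielding class probabilities (best dose reported). Compounds given i.p. in NMP/PEG/propylene glycol 15 min pre-test at 3 doses; potency as MED, the dose (mpk, range usually 0.3–30) reaching ≥50% total activity.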
row,Structure (SMILES),Potency: minimal effective dose (MED)
1,"N[C@H]1COCc2ccc(F)cc21 (single isomer, unassigned) [Example 114]",C (>10 to ≤30 mpk)
2,"N[C@@H]1COCc2ccc3ccccc3c21 (single isomer, unassigned) [Example 117]",B (>3 to 10 mpk)
3,"N[C@H]1COCc2ccc3ccccc3c21 (single isomer, unassigned) [Example 118]",B (>3 to 10 mpk)
4,Cc1ccc2c(c1)[C@H](N)COC2 [Example 123],A (≤3 mpk)
5,Cc1ccc2c(c1)[C@@H](N)COC2 [Example 124],B (>3 to 10 mpk)

# Same assay, conditions: Mus musculus, ip, MED = dose having 50% or more total activity, read-out: Potency: minimal effective dose (MED)
row,Structure (SMILES),minimal effective dose
1,"N[C@@H]1COCc2ccccc21 (single isomer, unassigned) [Example 111]",3 to 10 mg/kg

# Same assay, conditions: i.p. 15 min before test, most efficacious dose(s)
Structure (SMILES),AD: ADHD (probability of activity signature),AG: analgesic (probability of activity signature),AX: anxiolytic (probability of activity signature),CE: cognitive enhancer (probability of activity signature),DP: anti-depressant (probability of activity signature),MS: mood stabilizer (probability of activity signature),PS: anti-psychotic (probability of activity signature),SD: sedative hypnotic (probability of activity signature),UN: uncharacterized CNS activity (probability of activity signature)
"N[C@@H]1COCc2ccccc21 (single isomer, unassigned) [Example 111]",+ (LOQ ≤ + <5%),++ (5% ≤ ++ <25%),++ (5% ≤ ++ <25%),++ (5% ≤ ++ <25%),++ (5% ≤ ++ <25%),+ (LOQ ≤ + <5%),++ (5% ≤ ++ <25%),+ (LOQ ≤ + <5%),+++ (25% ≤ +++ <50%)
"N[C@H]1COCc2ccc(F)cc21 (single isomer, unassigned) [Example 114]",+ (LOQ ≤ + <5%),++ (5% ≤ ++ <25%),++ (5% ≤ ++ <25%),++ (5% ≤ ++ <25%),++ (5% ≤ ++ <25%),+ (LOQ ≤ + <5%),++ (5% ≤ ++ <25%),+ (LOQ ≤ + <5%),+++ (25% ≤ +++ <50%)
"N[C@@H]1COCc2ccc3ccccc3c21 (single isomer, unassigned) [Example 117]",+ (LOQ ≤ + <5%),++ (5% ≤ ++ <25%),++ (5% ≤ ++ <25%),++ (5% ≤ ++ <25%),++ (5% ≤ ++ <25%),++ (5% ≤ ++ <25%),+++ (25% ≤ +++ <50%),+ (LOQ ≤ + <5%),+ (LOQ ≤ + <5%)
"N[C@H]1COCc2ccc3ccccc3c21 (single isomer, unassigned) [Example 118]",+ (LOQ ≤ + <5%),++ (5% ≤ ++ <25%),++ (5% ≤ ++ <25%),++ (5% ≤ ++ <25%),+++ (25% ≤ +++ <50%),+ (LOQ ≤ + <5%),++ (5% ≤ ++ <25%),++ (5% ≤ ++ <25%),+ (LOQ ≤ + <5%)
Cc1ccc2c(c1)[C@H](N)COC2 [Example 123],+ (LOQ ≤ + <5%),++ (5% ≤ ++ <25%),++ (5% ≤ ++ <25%),+ (LOQ ≤ + <5%),++ (5% ≤ ++ <25%),+ (LOQ ≤ + <5%),++ (5% ≤ ++ <25%),++ (5% ≤ ++ <25%),+++ (25% ≤ +++ <50%)
Cc1ccc2c(c1)[C@@H](N)COC2 [Example 124],+ (LOQ ≤ + <5%),++ (5% ≤ ++ <25%),+++ (25% ≤ +++ <50%),++ (5% ≤ ++ <25%),++ (5% ≤ ++ <25%),+ (LOQ ≤ + <5%),++ (5% ≤ ++ <25%),++ (5% ≤ ++ <25%),+++ (25% ≤ +++ <50%)
